From patent EP0452101B1, “Spiro bridged and unbridged heterocyclic compounds” (ISRAEL INSTITUTE FOR BIOLOGICAL RESEARCH, priority 1990, dated 1991)
Where two headings read alike, the source gives them in different places.

Experiments:
[1] = biological target: T1, m1 receptors (Rattus norvegicus, UniProt P08482); test: PI hydrolysis in CHO cells transfected with m1 receptors; assay type: cell-based; settings: CHO m1
T1 construct: expressed in transfected cells; host or cells: CHO cells
T1 sequence (P08482 1-460): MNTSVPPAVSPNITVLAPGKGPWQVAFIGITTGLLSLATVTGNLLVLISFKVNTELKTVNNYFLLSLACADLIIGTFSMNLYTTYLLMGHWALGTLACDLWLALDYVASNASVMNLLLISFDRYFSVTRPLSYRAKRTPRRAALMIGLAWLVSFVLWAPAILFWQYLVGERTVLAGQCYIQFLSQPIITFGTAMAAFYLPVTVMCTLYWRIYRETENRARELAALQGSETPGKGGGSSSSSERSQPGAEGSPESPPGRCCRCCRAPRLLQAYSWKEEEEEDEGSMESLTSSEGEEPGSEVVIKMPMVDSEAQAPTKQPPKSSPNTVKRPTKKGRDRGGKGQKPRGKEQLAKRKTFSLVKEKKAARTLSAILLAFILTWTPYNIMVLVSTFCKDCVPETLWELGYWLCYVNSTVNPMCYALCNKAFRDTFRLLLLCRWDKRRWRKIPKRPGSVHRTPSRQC

[2] = biological target: T2, m4 subtype receptors (PC12 cells) (Rattus norvegicus, UniProt P08485); test: Inhibition of adenylate cyclase activity in PC12 cells; assay type: cell-based; settings: PC12 m4; tested at 1mM
T2 construct: endogenous in cells; host or cells: PC12 cells
T2 sequence (P08485 1-478): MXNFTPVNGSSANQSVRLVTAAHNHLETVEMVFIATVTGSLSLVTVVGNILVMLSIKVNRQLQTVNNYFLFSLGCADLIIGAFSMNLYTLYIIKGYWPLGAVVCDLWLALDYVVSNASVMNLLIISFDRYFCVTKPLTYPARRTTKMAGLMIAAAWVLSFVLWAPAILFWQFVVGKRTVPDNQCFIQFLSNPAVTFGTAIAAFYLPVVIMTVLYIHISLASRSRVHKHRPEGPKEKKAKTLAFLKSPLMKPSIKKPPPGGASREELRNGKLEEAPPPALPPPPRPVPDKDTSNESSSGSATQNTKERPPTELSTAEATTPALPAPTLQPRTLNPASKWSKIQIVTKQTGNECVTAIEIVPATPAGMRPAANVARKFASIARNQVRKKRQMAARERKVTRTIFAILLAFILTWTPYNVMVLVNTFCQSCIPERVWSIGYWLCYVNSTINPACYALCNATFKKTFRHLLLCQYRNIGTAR
Method: (§1) The new compounds AF150, AF151, AF150(S) and AF125 were assayed for their ability to stimulate PI in CHO cells transfected with m1 and m3 receptors, respectively (Buck and Fraser, loc cit), and in cultured human neuroblastoma cells, line SK-N-SH, which express mainly the m3 subtype, but not the m1 subtype (Pinkas-Kramarski et al, Neurosci. Lett. 188: 335-340, 1990; Luthin et al Mol. Pharmacol. 34: 327-333, 1988). These compounds were also assayed on cultured PC12 cells which express mainly m4 subtype receptors and are coupled to inhibition of AC activity (Pinkas-Kramarski et al, loc cit).
(§2) Stimulation of PI breakdown was assayed using the method described by Stein et al (EMBO J. 7: 3031-3035, 1988), and modulation of AC activity was assayed by the method of Stein et al, loc cit and Pinkas-Kramarski et al (FEBS Lett., 239: 174-178, 1988). […]

[3] = biological target: T3, M2 muscarinic receptors (Rattus norvegicus, UniProt P10980); test: Displacement of 3H-QNB from rat cerebellum, 50 mM phosphate buffer; assay type: binding; settings: for Ki / % H / % H2 / %L / % L2: cerebellum; for RATIOS d:c: KL2 : KH2 cerebellum (3H-QNB)
T3 construct: displacing from rat brain homogenates, cerebellum or frontal cortex; from tissue; host or cells: rat cerebellum homogenates
T3 sequence (P10980 1-466): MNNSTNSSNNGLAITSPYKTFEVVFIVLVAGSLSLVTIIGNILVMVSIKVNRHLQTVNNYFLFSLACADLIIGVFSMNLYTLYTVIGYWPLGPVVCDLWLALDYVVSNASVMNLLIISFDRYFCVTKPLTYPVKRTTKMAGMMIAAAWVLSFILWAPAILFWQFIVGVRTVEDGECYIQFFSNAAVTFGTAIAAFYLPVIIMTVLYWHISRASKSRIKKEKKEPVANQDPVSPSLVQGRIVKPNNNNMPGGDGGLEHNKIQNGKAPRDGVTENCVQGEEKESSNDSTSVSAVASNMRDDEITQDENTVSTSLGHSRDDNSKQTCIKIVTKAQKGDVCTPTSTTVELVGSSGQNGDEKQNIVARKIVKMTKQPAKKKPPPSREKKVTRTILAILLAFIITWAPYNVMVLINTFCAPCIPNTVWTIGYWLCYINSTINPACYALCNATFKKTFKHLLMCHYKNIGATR

[4] = biological target: T4, M1 muscarinic receptor (Rattus norvegicus, UniProt P08482); test: Displacement of 3H-QNB from rat cerebral cortex, 50 mM phosphate buffer; assay type: binding; settings: for RATIOS c:a: KH2 cerebellum : KH1 cortex (3H-QNB); for % H1 / % L1: cortex, Table 5; for RATIOS b:a: KL1 : KH1 cortex (3H-QNB); for RATIOS d:b: KL2 cerebellum : KL1 cortex (3H-QNB)
T4 sequence (P08482 1-460): T1 sequence (P08482 1-460)

[5] = tested on: muscarinic receptors; test: (-)3H-QNB binding to rat cerebral cortex homogenates with and without Cu++ treatment
[6] = tested on: rat cerebral cortex synaptosomes; test: Synaptosomal 3H-ACh release, basal and K+-evoked; settings: 0.1 mM
Source text: The effects of AF150 (and for comparison purposes, AF125, MeN-A-343 and oxotremorine) on basal- and K^+-evoked release of ^3H-ACh were studied on synaptosomes prepared from rat cerebral cortex using the methods described in detail by Pittel et al (J. Neurochem., 55: 665-672, 1990). […] On the other hand, the action of AF150 on presynaptic muscarinic receptors, causing an increase in K^+-evoked ACh release, can be considered either as an M2 antagonistic or an M1 agonistic effect. […] The existence of muscarinic autoreceptors that increase ACh release was manifested also in the PNS in smooth muscle preparation (Kilbinger and Nafziger, Naunyn Schmiedebergs Arch. Pharmacol. 328: 304-309, 1985).

[7] = biological target: T4, M1 muscarinic receptor; test: Displacement of 3H-PZ from rat cerebral cortex, 10 mM phosphate buffer; assay type: binding; parameters: from tissue; host or cells: rat cerebral cortex homogenates; settings: for RATIOS c:a: KH cerebellum (3H-QNB) : KH cortex (3H-PZ)
[8] = biological target: T5, m3 subtype (SK-N-SH cells) (Homo sapiens, UniProt P20309); test: PI hydrolysis in SK-N-SH neuroblastoma cells; assay type: cell-based
T5 construct: endogenous in cells; host or cells: SK-N-SH human neuroblastoma cells
T5 sequence (P20309 whole entry): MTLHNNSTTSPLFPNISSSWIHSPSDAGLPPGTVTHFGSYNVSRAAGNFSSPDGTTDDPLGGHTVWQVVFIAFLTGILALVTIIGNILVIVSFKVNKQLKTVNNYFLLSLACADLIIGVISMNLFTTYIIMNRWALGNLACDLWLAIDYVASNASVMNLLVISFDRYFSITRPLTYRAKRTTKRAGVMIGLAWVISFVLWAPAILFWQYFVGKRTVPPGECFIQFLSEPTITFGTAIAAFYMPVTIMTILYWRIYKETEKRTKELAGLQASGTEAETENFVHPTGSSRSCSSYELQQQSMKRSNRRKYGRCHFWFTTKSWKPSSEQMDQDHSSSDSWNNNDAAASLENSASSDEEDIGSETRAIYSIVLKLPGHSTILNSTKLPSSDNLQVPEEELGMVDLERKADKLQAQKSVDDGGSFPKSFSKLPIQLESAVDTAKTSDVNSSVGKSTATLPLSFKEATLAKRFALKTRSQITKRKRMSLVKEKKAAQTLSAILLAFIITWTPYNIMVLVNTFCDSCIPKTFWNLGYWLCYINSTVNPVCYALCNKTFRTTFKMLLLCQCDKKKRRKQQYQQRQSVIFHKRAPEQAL
Method: as §1, §2

[9] = biological target: T4, M1 muscarinic receptor; test: Displacement of 3H-PZ from cortical binding sites, Tris/Mn buffer, with and without GppNHp; parameters: from tissue; host or cells: rat cerebral cortex homogenates
Source text: The binding of agonists to M1 muscarinic receptors and the effect of guanylyl imidophosphate (GppNHp). Agonists are known to be coupled with guanine nucleotide binding proteins (G proteins).
Non-hydrolyzable guanine nucleotides such as GppNHp dissociate the G protein from the receptor and decrease the affinity of the receptor for agonists but not for antagonists. […] Molec.
Under these conditions agonists of high efficacy ("full agonists") bind directly to the M1 receptor subtype with two affinities. […] The ratio of low and high affinities (KL/KH) of the M1 receptor may predict the relative efficacies of agonists to activate putative M1 receptor-mediated second messenger systems.
KH, KL, %H and %L are the apparent inhibition constants of the tested ligands for the high and low affinity sites, respectively. G is GppNHp (guanylyl imidodiphosphate), and was used in 0.1 mM concentration. Displacement of ^3H-PZ from cortical binding sites was performed in Tris/Mn buffer (pH 7.4) for one hour at 25°C; the buffer included 1 mM EDTA and 2mM Mn^++ ions. […] The binding data were analyzed using a GraphPAD program and were fitted to one or two components. Values are means from 1-3 experiments carried out in triplicates.

[10] = 3H-QNB-Binding KH2 (c), Table 5
[11] = with Cu++ pretreatment (100 µM, 30 minutes)
[12] = with Cu++ pretreatment (100 µM, 30 minutes), read-out: KL
[13] = without pretreatment, read-out: KH
[14] = without pretreatment, read-out: KL
[15] = 3H-QNB-Binding KL2 (d), Table 5

## CC1=NCC2(CCN(C)CC2)S1 [AF150(S), 2-Methyl-spiro(1,3-thiazoline-5,4')-1'-methylpiperidine]
[1]
  PI, % of carbachol effect: 17%
[1]; tested at 1mM
  PI (phosphoinositides hydrolysis): +

## C[N+](C)(C)CCOC(N)=O [Carbachol, reference compound]
[2]
  AC (adenylate cyclase activity): +++

## C[N+](C)(C)CC#CCOC(=O)Nc1cccc(Cl)c1 [McN-A-343]
[3]; [10]
  Ki: 11000 nM
[3]; Table 4
  % H: 100%
[3]; Table 4, read-out: 3H-QNB-Binding KH (c)
  Ki: 24400 nM
[3]; Table 5
  % H2: 100%
[4]
  RATIOS c:a: 1.9
  % H1: 100%
[5]; [11]
  %H (% of high affinity state): 30±7%
[5]; with Cu++ pretreatment (100 µM, 30 minutes), read-out: KH
  Ki: 180 ± 90 nM
[5]; [12]
  Ki: 5700 ± 200 nM
[5]; without pretreatment
  %H (% of high affinity state): 13±5%
[5]; [13]
  Ki: 340 ± 100 nM
[5]; [14]
  Ki: 8500 ± 800 nM
[6]
  Basal 3H-ACh release: 144%
  K+-evoked 3H-ACh release: 172%
[7]
  % H: 100%
  RATIOS c:a: 6.4
[7]; 3H-PZ-Binding KH (a)
  Ki: 3800 nM

## C[N+](C)(C)CC#CCN1CCCC1=O [Oxotremorine-M, reference compound]
[3]; [10]
  Ki: 69 nM
[3]; 3H-QNB-Binding KH (c), Table 4
  Ki: 69 nM
[3]; [15]
  Ki: 5200 nM
[3]; 3H-QNB-Binding KL (d), Table 4
  Ki: 5200 nM
[3]
  RATIOS d:c: 75
[3]; Table 4
  % H: 49%
  %L: 51%
[3]; Table 5
  % H2: 49%
  % L2: 51%
[4]
  RATIOS c:a: 0.6
  RATIOS b:a: 336
  RATIOS d:b: 0.14
  % H1: 26%
  % L1: 74%
[8]
  accumulation of inositol-1-phosphate (IP1) stimulated over basal level: 5.24 fold
[9]; +G (0.1 mM GppNHp)
  % H: 2.7%
  %L: 73%
[9]; -G
  % H: 53%
  %L: 47%
[9]; KH, +G (0.1 mM GppNHp)
  Ki: 350 nM
[9]; KH, -G (without GppNHp)
  Ki: 110 nM
[9]; KL, +G (0.1 mM GppNHp)
  Ki: 4200 nM
[9]; KL, -G
  Ki: 6700 nM
[9]; ratio of low and high affinities without GppNHp
  KL-G / KH-G: 61
[7]
  % H: 53%
  %L: 47%
  RATIOS b:a: 67
  RATIOS c:a: 0.69
[7]; 3H-PZ-Binding KH (a)
  Ki: 100 nM
[7]; 3H-PZ-Binding KL (b)
  Ki: 6700 nM
[7]; KL cerebellum (3H-QNB) : KL cortex (3H-PZ)
  RATIOS d:b: 0.78

## O=C1CCCN1CC#CCN1CCCC1 [Oxotremorine]
[3]; [10]
  Ki: 14 nM
[3]; 3H-QNB-Binding KH (c), Table 4
  Ki: 14 nM
[3]; [15]
  Ki: 580 nM
[3]; 3H-QNB-Binding KL (d), Table 4
  Ki: 580 nM
[3]
  RATIOS d:c: 41
[3]; Table 4
  % H: 35%
  %L: 65%
[3]; Table 5
  % H2: 35%
  % L2: 65%
[4]
  RATIOS c:a: 0.9
  RATIOS b:a: 100
  RATIOS d:b: 0.36
  % H1: 13%
  % L1: 87%
[5]; [11]
  %H (% of high affinity state): 51%
[5]; with Cu++ pretreatment (100 µM, 30 minutes), listed as 3
  %H (% of high affinity state): 51±7%
[5]; [12]
  Ki: 7200 ± 1700 nM
[5]; without pretreatment
  %H (% of high affinity state): 32%
[5]; without pretreatment, listed as 3
  %H (% of high affinity state): 32±3%
[5]; [13]
  Ki: 20 ± 5 nM
[5]; [14]
  Ki: 13300 ± 1400 nM
[6]
  K+-evoked 3H-ACh release: 56%
